In patent US9890185B2, “Urea derivatives useful as kinase inhibitors” (Respivert Limited, priority 2013, dated 2018):

Columns and labels:
PBMCs [1] = assay: LPS-induced IL-8 release in PBMC cells (assay b); type: cell-based, human; details: Homo sapiens, PBMC; LPS-stimulated PBMCs; read-out: IC50 Values for Inhibition of Cytokine Release, PBMCs IL-8
Outline: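 Cytokines (TNFα, IL-8) in supernatants were quantified by sandwich ELISA after a 24 h challenge with 1 ng/mL E. coli LPS at 37° C, 5% CO2. Healthy-donor PBMCs had been exposed to compound for 2 h beforehand. IC50 values were fitted from the concentration-response curves.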

GSK 3α = GSK 3α (Homo sapiens (Human), UniProt P49840); assay: GSK 3α enzyme inhibition (FRET, Z-LYTE, Method 2); type: biochemical; details: read-out: IC50 Values for Enzyme Inhibition, GSK3α
Outline: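 Human GSK3α (500 ng/mL) preincubated with compound (4, 0.4, 0.04 or 0.004 μg/mL) at RT for 2 h (Method 1) or 105 min (Method 2). Then FRET peptide (8 μM) and ATP (40 μM) added for 1 h, followed by protease development for 1 h. IC50 from the coumarin/fluorescein emission ratio relative to uninhibited control.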

d-U937 cells = assay: Accumulation of β catenin in d-U937 cells (assay m); type: cell-based, human; details: percentage relative to Reference Compound at 1 μg/mL
Outline: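 Read-out: colourimetric cell-based immunoassay for endogenous β-catenin (OD450 minus 655 reference), normalised to crystal violet absorbance at 595 nm. Test compound or vehicle was applied for 18 hr to U937 monocytes first differentiated with PMA (100 ng/mL) for 48–72 hr.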

[2] = molecular target: p38 MAPKα isoform (MAPK14) (Homo sapiens (Human), UniProt Q16539); assay: p38 MAPKα enzyme inhibition (FRET, Z-LYTE, Method 2); type: biochemical
Outline: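 Z-LYTE FRET: p38 MAPKα (80 ng/mL for Method 1, 200 ng/mL for Method 2, pre-dilution) preincubated 2 hr RT with compound (4–0.004 μg/mL solutions), activity read via MAPKAP-K2 phosphorylation after 1 hr RT and 1 hr protease development. Coumarin/fluorescein ratio gives phosphorylation; % inhibition versus uninhibited control, IC50 from concentration-response curve.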

PBMCs [3] = assay: Cell mitosis assay in PBMCs (assay g); type: cell-based; details: Homo sapiens, PBMC, test compound 5 μg/mL
Outline: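 Metaphase arrest with 0.1 μg/mL demecolcine during the final 2 hr of a 20 hr compound exposure, which follows 48 hr of 2% PHA stimulation of healthy-donor human PBMCs. Mitotic lymphocytes counted by flow cytometry (anti-phospho-histone 3 plus propidium iodide). Inhibition expressed relative to 0.5% DMSO.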

Sequence of p38 MAPKα isoform (MAPK14) (Q16539 whole entry, canonical isoform): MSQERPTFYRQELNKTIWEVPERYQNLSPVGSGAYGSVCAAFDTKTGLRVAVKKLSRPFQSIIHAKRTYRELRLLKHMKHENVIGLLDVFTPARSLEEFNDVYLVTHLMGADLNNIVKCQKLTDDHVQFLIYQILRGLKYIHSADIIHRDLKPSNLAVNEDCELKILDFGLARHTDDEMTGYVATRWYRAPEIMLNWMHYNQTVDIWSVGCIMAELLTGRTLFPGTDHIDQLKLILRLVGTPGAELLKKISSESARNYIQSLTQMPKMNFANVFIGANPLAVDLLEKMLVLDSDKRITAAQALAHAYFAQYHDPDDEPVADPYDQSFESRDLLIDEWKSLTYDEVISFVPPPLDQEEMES
Sequence of GSK 3α (P49840 whole entry): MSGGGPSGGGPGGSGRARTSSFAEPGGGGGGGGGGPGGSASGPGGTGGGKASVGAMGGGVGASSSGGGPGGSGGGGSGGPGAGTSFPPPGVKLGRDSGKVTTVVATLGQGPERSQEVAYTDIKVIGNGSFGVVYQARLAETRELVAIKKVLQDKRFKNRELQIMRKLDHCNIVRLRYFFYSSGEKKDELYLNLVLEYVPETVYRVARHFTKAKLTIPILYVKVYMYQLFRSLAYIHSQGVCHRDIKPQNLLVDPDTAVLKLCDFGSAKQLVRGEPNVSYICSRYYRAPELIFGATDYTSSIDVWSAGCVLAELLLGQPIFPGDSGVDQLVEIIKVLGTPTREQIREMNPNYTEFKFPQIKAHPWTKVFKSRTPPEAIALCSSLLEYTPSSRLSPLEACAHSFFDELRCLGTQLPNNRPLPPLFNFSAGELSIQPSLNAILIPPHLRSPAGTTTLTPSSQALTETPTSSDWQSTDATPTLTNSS

SMILES | IC50 (GSK 3α) | IC50 [2] | IC50 (PBMCs [1]) | % β-catenin induction (d-U937 cells; test compound 1 μg/mL) | % β-catenin induction (d-U937 cells; test compound 5 μg/mL) | % β-catenin induction (d-U937 cells; test compound 10 μg/mL) | inhibition at 5 µg/mL (PBMCs [3])
COc1c(CNC(C)=O)cc(C(C)(C)C)cc1NC(=O)Nc1ccc(Oc2ccnc(NCc3ccccn3)c2)c2ccccc12 [38(q), N-(5-(tert-Butyl)-2-methoxy-3-(3-(4-((2-((pyridin-2-ylmethyl)amino)pyridin-4-yl)oxy)naphthalen-1-yl)ureido)benzyl)acetamide] | 1500 nM | 6 nM | 1.4 nM | 11.5% | 41.5% | 57.5% | 82.1%
COCCOCCOCCOc1cc(Nc2cc(Oc3ccc(NC(=O)Nc4cc(C(C)(C)C)cc(P(C)(C)=O)c4OC)c4ccccc34)ccn2)cc(OC)c1 [Example 2, 1-(5-(tert-Butyl)-3-(dimethylphosphoryl)-2-methoxyphenyl)-3-(4-((2-((3-methoxy-5-(2-(2-(2-methoxyethoxy)ethoxy)ethoxy)phenyl)amino)pyridin-4-yl)oxy)naphthalen-1-yl)urea] | 2820 nM | 51 nM | 1 nM | 4.0% | 32.5% | 31.5% | 58.9%
C#Cc1cc(Nc2cc(Oc3ccc(NC(=O)Nc4cc(C(C)(C)C)cc(P(C)(C)=O)c4OC)c4ccccc34)ccn2)cc(C(=O)NCCOCCOCCOC)c1 [Example 3, 3-((4-((4-(3-(5-(tert-Butyl)-3-(dimethylphosphoryl)-2-methoxyphenyl)ureido)naphthalen-1-yl)oxy)pyridin-2-yl)amino)-5-ethynyl-N-(2-(2-(2-methoxyethoxy)ethoxy)ethyl)benzamide] | 4900 nM | 91 nM | 2.8 nM | 5.7% | 9.7% | 7.3% | 29.4%
COCCOCCOCCOc1cc(Nc2nccc(Oc3ccc(NC(=O)Nc4cc(C(C)(C)C)cc(OCP(C)(C)=O)c4OC)c4ccccc34)n2)cc(OC)c1 [Example 6, 1-(5-(tert-Butyl)-3-((dimethylphosphoryl)methoxy)-2-methoxyphenyl)-3-(4-((2-((3-methoxy-5-(2-(2-(2-methoxyethoxy)ethoxy)ethoxy)phenyl)amino)pyrimidin-4-yl)oxy)naphthalen-1-yl)urea] | 1200 nM | 211 nM | 1.9 nM | 1.0% | 29.0% | 65.0% | 52.4%
COCCOCCOCCOc1cc(Nc2nccc(Oc3ccc(NC(=O)Nc4cc(C(C)(C)C)cc(C(=O)NCCN5CCOCC5)c4OC)c4ccccc34)n2)cc(OC)c1 [Example 8, 5-(tert-Butyl)-2-methoxy-3-(3-(4-((2-((3-methoxy-5-(2-(2-(2-methoxyethoxy)ethoxy)-ethoxy)phenyl)amino)pyrimidin-4-yl)oxy)naphthalen-1-yl)ureido)-N-(2-morpholinoethyl)-benzamide] | 788 nM | 188 nM | 1.3 nM | 2.5% | 22.5% | 26.5% | 58.1%
COCCOCCOCCOc1cc(Nc2cc(Oc3ccc(NC(=O)Nc4cc(C(C)(C)C)cc(S(C)(=O)=O)c4OC)c4ccccc34)ccn2)cc(OC)c1 [Example 9, 1-(5-(tert-Butyl)-2-methoxy-3-(methylsulfonyl)phenyl)-3-(4-((2-((3-methoxy-5-(2-(2-(2-methoxyethoxy)ethoxy)ethoxy)phenyl)amino)pyridin-4-yl)oxy)naphthalen-1-yl)urea] | > 10700 nM | 290 nM | 3.5 nM | 4.5% | 5.5% | 0.0% | 50.8%
COc1c(NC(=O)Nc2ccc(Oc3ccnc(Nc4ccccc4)c3)c3ccccc23)cc(C(C)(C)C)cc1C(=O)NCCN1CCOCC1 [Example 14, 5-(tert-Butyl)-2-methoxy-N-(2-morpholinoethyl)-3-(3-(4-((2-(phenylamino)pyridin-4-yl)oxy)naphthalen-1-yl)ureido)benzamide] | > 10100 nM | 392 nM | 3.3 nM | −0.5% | 22.0% | 25.5% | 51.9%
COCCOCCOCCOc1cc(Nc2cc(Oc3ccc(NC(=O)Nc4cc(C(C)(C)C)cc(C(=O)NCCN5CCOCC5)c4OC)c4ccccc34)ccn2)cc(OC)c1 [Example 16, 5-(tert-Butyl)-2-methoxy-3-(3-(4-((2-((3-methoxy-5-(2-(2-(2-methoxyethoxy)ethoxy)ethoxy)-phenyl)amino)pyridin-4-yl)oxy)naphthalen-1-yl)ureido)-N-(2-morpholinoethyl)benzamide] | 5670 nM | 230 nM | 1.7 nM | 0.0% | −3.0% | −6.5% | 43.3%
COCCOCCOCCOc1cc(Nc2cc(Oc3ccc(NC(=O)Nc4cc(C(C)(C)C)cc([S+](C)[O-])c4OC)c4ccccc34)ccn2)cc(OC)c1 (centres unmarked) [Example 17, 1-(5-(tert-Butyl)-2-methoxy-3-(methylsulfinyl)phenyl)-3-(4-((2-((3-methoxy-5-(2-(2-(2-methoxyethoxy)ethoxy)ethoxy)phenyl)amino)pyridin-4-yl)oxy)naphthalen-1-yl)urea] | 10300 nM | 68 nM | 0.9 nM | −2.0% | −7.0% | −5.5% | 41.3%
COc1cc(Nc2nccc(Oc3ccc(NC(=O)Nc4cc(C(C)(C)C)cc(OCP(C)(C)=O)c4OC)c4ccccc34)n2)cc(OC)c1 [Example 20, 1-(5-(tert-Butyl)-3-((dimethylphosphoryl)methoxy)-2-methoxyphenyl)-3-(4-((2-((3,5-dimethoxyphenyl)amino)pyrimidin-4-yl)oxy)naphthalen-1-yl)urea] | 2060 nM | 368 nM | 2.5 nM | 2.5% | 20.5% | 16.5% | 55%

Now from value to compound, other results behind:

IC50 (GSK 3α) | IC50 [2] | SMILES | IC50 (PBMCs [1]) | % β-catenin induction (d-U937 cells; test compound 1 μg/mL) | % β-catenin induction (d-U937 cells; test compound 5 μg/mL) | % β-catenin induction (d-U937 cells; test compound 10 μg/mL) | inhibition at 5 µg/mL (PBMCs [3])
> 8340 nM | 45 nM | COCCOCCOCCOc1cc(Nc2cc(Oc3ccc(NC(=O)Nc4cc(C(C)(C)C)cc(P(C)(C)=O)c4)c4ccccc34)ccn2)cc(OC)c1 [Example 10, 1-(3-(tert-Butyl)-5-(dimethylphosphoryl)phenyl)-3-(4-((2-((3-methoxy-5-(2-(2-(2-methoxy-ethoxy)ethoxy)ethoxy)phenyl)amino)pyridin-4-yl)oxy)naphthalen-1-yl)urea] | 2 nM | −2.5% | −6.0% | −4.0% | 39.3%
3830 nM | 141 nM | COc1c(NC(=O)Nc2ccc(Oc3ccnc(Nc4ccccc4)c3)c3ccccc23)cc(C(C)(C)C)cc1P(C)(C)=O [Example 11, 1-(5-(tert-Butyl)-3-(dimethylphosphoryl)-2-methoxyphenyl)-3-(4-((2-(phenylamino)pyridin-4-yl)oxy)naphthalen-1-yl)urea] | 2.3 nM | 5.0% | 19.7% | 27.3% | 61%
7580 nM | 108 nM | COc1c(CC(N)=O)cc(C(C)(C)C)cc1NC(=O)Nc1ccc(Oc2ccnc(Nc3ccccc3)c2)c2ccccc12 [Example 13, 2-(5-(tert-Butyl)-2-methoxy-3-(3-(4-((2-(phenylamino)pyridin-4-yl)oxy)naphthalen-1-yl)ureido)phenyl)acetamide] | 6.4 nM | −4.0% | 6.5% | 9.5% | 13.9%
> 16000 nM | 208 nM | COc1c(CS(C)(=O)=O)cc(C(C)(C)C)cc1NC(=O)Nc1ccc(Oc2ccnc(Nc3ccccc3)c2)c2ccccc12 [Example 19, 1-(5-(tert-Butyl)-2-methoxy-3-((methylsulfonyl)methyl)phenyl)-3-(4-((2-(phenylamino)pyridin-4-yl)oxy)naphthalen-1-yl)urea] | 6.2 nM | 2.5% | 9.0% | 13.0% | 36.9%
